Measured values published in patent US20040029965A1, “Formulations for reducing or eliminating toxicity of enviromental hormones containing ursodeoxycholic acid” (priority 2000, published 2004).
Marks after values point to notes of the source that are not given here.

What was measured:
C57B1/6J mice [1] = test: Hematological changes in mice by a single subcutaneous injection of TCDD; type: in vivo; set-up: NEU / LYM / PLT: unit not given here
Protocol: (§1) Male C57B1/6J mice of 5 weeks old having the average weight of 18-22 g which had been bred in CRJ (Charles River in Japan) were purchased and used in this example as experimental animals. Those mice were acclimated under the constant breeding condition, i.e. the temperature of 24±1° C., the humidity of 60±10% and the light and darkness cycle of 12 hours, for one week and thereafter, utilized in the experiment.
(§2) 2,3,7,8-tetrachlorodibenzo-p-dioxin (TCDD) dissolved in toluene (purity of 95% or more as a result of gas chromatography analysis), manufactured by Chem. Services Inc. in USA, was volatilized with nitrogen to obtain powder. The obtained powder was dissolved in a mixed solvent containing acetone and corn oil with a volume ratio of 1:6. The resulting solution each containing 110, 27.5 and 6.9 μg/kg of TCDD was subcutaneously injected to mice at a volume of 5 ml per body weight. […] The mice were supplied with the feed from 10 days before (pre-administration) to 60 days after administration of TCDD (post-administration).
(§3) Upon completion of the experiment for 60 days, the experimental animals were fasted for 24 hours and anesthetized with ether. Then, they were abdominally incised and blood was gathered from abdominal vena cava. They were sacrificed by the release of blood. Liver, kidneys, testes and epididymides were extracted and all the extracted organs were weighed. Only the testes were separately kept and observed under optical and electron microscopes. For biochemical finding test, serum was separated from blood with a centrifuge and the separated serum was analyzed with an automated blood biochemical analyzer, Dimension (Dupont, USA). Blood was put to another blood gathering bottle and then, analyzed with an automated blood cell analyzer, Celldyn (Abbott, USA).
(§4) The results are expressed as Mean±Standard Deviation values. For statistical analysis of the body weight, feed and water uptake, biochemical findings, hematological findings and the weight of organ in an acute toxicity test, verification was performed by one way analysis of variance (ANOVA) in case of equal distribution. In case significance was recognized in ANOVA, the Student's t-test was performed in the levels of p<0.05 and p<0.01.
For hematological findings, white blood cell (WBC), neutrophil (NEU), lymphocyte (LYM), monocyte (MONO), eosinophil (EOS), basophil (BASO) and red blood cell (RBC) counts, and hemoglobin concentration (HGB), hematocrit (HCT), mean cell volume (MCV), mean corpuscular hemoglobin (MCH), mean corpuscular hemoglobin concentration (MCHC), red blood cell distribution width (RDW) and platelet count (PLT) were measured and the results are as follows.

C57B1/6J mice [2] = test: Blood (serum) biochemical changes in mice by a single subcutaneous injection of TCDD; type: in vivo
Protocol: as §1, §2, §3, §4
For biochemical findings in the serum, the levels of glucose (GLU), GOT, GPT, Triglyceride (TG), high density lipoprotein (HDL-C), low density lipoprotein (LDL-C) and alkaline phosphatase (ALP) in serum were measured and the results are shown in the following.

[3] = TCDD 27.5 μg/kg + UDCA 0.25 wt %
[4] = TCDD 27.5 μg/kg + UDCA 0.5 wt %
[5] = TCDD 6.9 μg/kg + UDCA 0.125 wt %
[6] = TCDD 6.9 μg/kg + UDCA 0.25 wt %
[7] = TCDD 27.5 μg/kg + UDCA 0.125 wt %

C[C@H](CCC(=O)O)[C@H]1CC[C@H]2[C@@H]3[C@@H](O)C[C@@H]4C[C@H](O)CC[C@]4(C)[C@H]3CC[C@]12C [UDCA, 3α, 7β-dihydroxy-5β-cholanoic acid]
MCHC (C57B1/6J mice [1]; [3]): 32.58 ± 0.73 g/dL
MCV (C57B1/6J mice [1]; [3]): 46.09 ± 0.42 fL
MONO (C57B1/6J mice [1]; [3]): 0.05 ± 0.03 10^3
NEU (C57B1/6J mice [1]; [3]): 0.48 ± 0.09## 10^3
PLT (C57B1/6J mice [1]; [3]): 1069.70 ± 128.48## 10^3
RBC (C57B1/6J mice [1]; [3]): 9.48 ± 0.29 10^6
RDW (C57B1/6J mice [1]; [3]): 19.99 ± 1.08%
WBC (C57B1/6J mice [1]; [3]): 3.78 ± 1.19 10^3
BASO (C57B1/6J mice [1]; [4]): 0.14 ± 0.07 10^3
EOS (C57B1/6J mice [1]; [4]): 0.005 ± 0.003 10^3
HCT (C57B1/6J mice [1]; [4]): 44.49 ± 1.63 %
HGB (C57B1/6J mice [1]; [4]): 14.80 ± 0.78 g/dL
LYM (C57B1/6J mice [1]; [4]): 3.04 ± 0.77## 10^3
MCH (C57B1/6J mice [1]; [4]): 15.46 ± 0.59 pg
MCHC (C57B1/6J mice [1]; [4]): 33.23 ± 1.04 g/dL
MCV (C57B1/6J mice [1]; [4]): 46.46 ± 0.86 fL
MONO (C57B1/6J mice [1]; [4]): 0.05 ± 0.04 10^3
NEU (C57B1/6J mice [1]; [4]): 0.59 ± 0.23## 10^3
PLT (C57B1/6J mice [1]; [4]): 1068.14 ± 84.28## 10^3
RBC (C57B1/6J mice [1]; [4]): 9.57 ± 0.25 10^6
RDW (C57B1/6J mice [1]; [4]): 20.44 ± 0.82%
WBC (C57B1/6J mice [1]; [4]): 3.71 ± 0.99 10^3
ALP (C57B1/6J mice [2]; [5]): 66.78 ± 7.21 IU/l
GLU (C57B1/6J mice [2]; [5]): 128.00 ± 27.26 mg/dL
GOT (C57B1/6J mice [2]; [5]): 49.80 ± 2.74 IU/l
GPT (C57B1/6J mice [2]; [5]): 23.50 ± 8.32 IU/l
HDL-C (C57B1/6J mice [2]; [5]): 45.67 ± 2.74 mg/dL
LDL-C (C57B1/6J mice [2]; [5]): 14.56 ± 6.28 mg/dL
TG (C57B1/6J mice [2]; [5]): 79.56 ± 1129 mg/dL
ALP (C57B1/6J mice [2]; [6]): 72.05 ± 6.63 IU/l
GLU (C57B1/6J mice [2]; [6]): 104.60 ± 24.87 mg/dL
GOT (C57B1/6J mice [2]; [6]): 57.30 ± 4.83 IU/l
GPT (C57B1/6J mice [2]; [6]): 24.00 ± 6.39 IU/l
HDL-C (C57B1/6J mice [2]; [6]): 46.30 ± 5.08 mg/dL
LDL-C (C57B1/6J mice [2]; [6]): 21.20 ± 5.25 mg/dL
TG (C57B1/6J mice [2]; [6]): 75.90 ± 11.55 mg/dL
ALP (C57B1/6J mice [2]; TCDD 6.9 μg/kg + UDCA 0.5 wt %): 85.24 ± 10.28 IU/l
GLU (C57B1/6J mice [2]; TCDD 6.9 μg/kg + UDCA 0.5 wt %): 125.50 ± 14.98 mg/dL
GOT (C57B1/6J mice [2]; TCDD 6.9 μg/kg + UDCA 0.5 wt %): 47.11 ± 1.9 IU/l
GPT (C57B1/6J mice [2]; TCDD 6.9 μg/kg + UDCA 0.5 wt %): 18.78 ± 5.07 IU/l
HDL-C (C57B1/6J mice [2]; TCDD 6.9 μg/kg + UDCA 0.5 wt %): 44.83 ± 2.04 mg/dL
LDL-C (C57B1/6J mice [2]; TCDD 6.9 μg/kg + UDCA 0.5 wt %): 28.33 ± 4.63 mg/dL
TG (C57B1/6J mice [2]; TCDD 6.9 μg/kg + UDCA 0.5 wt %): 84.20 ± 7.66 mg/dL
ALP (C57B1/6J mice [2]; [7]): 75.14 ± 18.33 IU/l
GLU (C57B1/6J mice [2]; [7]): 55.22 ± 9.34 mg/dL
GOT (C57B1/6J mice [2]; [7]): 75.22 ± 6.38 IU/l
GPT (C57B1/6J mice [2]; [7]): 54.67 ± 23.28 IU/l
HDL-C (C57B1/6J mice [2]; [7]): 34.78 ± 4.35 mg/dL
LDL-C (C57B1/6J mice [2]; [7]): 2.40 ± 1.14 mg/dL
TG (C57B1/6J mice [2]; [7]): 98.78 ± 17.14 mg/dL
ALP (C57B1/6J mice [2]; [3]): 79.63 ± 6.07 IU/l
GLU (C57B1/6J mice [2]; [3]): 82.44 ± 13.04 mg/dL
GOT (C57B1/6J mice [2]; [3]): 58.67 ± 5.54 IU/l
GPT (C57B1/6J mice [2]; [3]): 42.11 ± 22.05 IU/l
HDL-C (C57B1/6J mice [2]; [3]): 37.44 ± 3.64 mg/dL
LDL-C (C57B1/6J mice [2]; [3]): 4.29 ± 4.03 mg/dL
TG (C57B1/6J mice [2]; [3]): 97.00 ± 17.68 mg/dL
ALP (C57B1/6J mice [2]; [4]): 80.57 ± 14.52 IU/l
GLU (C57B1/6J mice [2]; [4]): 64.22 ± 9.35 mg/dL
GOT (C57B1/6J mice [2]; [4]): 96.67 ± 31.63 IU/l
GPT (C57B1/6J mice [2]; [4]): 45.38 ± 21.74 IU/l
HDL-C (C57B1/6J mice [2]; [4]): 47.00 ± 7.66 mg/dL
LDL-C (C57B1/6J mice [2]; [4]): 15.33 mg/dL
TG (C57B1/6J mice [2]; [4]): 133.33 ± 13.17 mg/dL
